Experimental findings from PMC7397249, “Properly Substituted Cyclic Bis-(2-bromobenzylidene) Compounds Behaved as Dual p300/CARM1 Inhibitors and Induced Apoptosis in Cancer Cells” (Molecules, 2020) are described below.

Molecules are shown by their SMILES.

As usually defined, the viability is the share of living cells, or the viability signal relative to a control.

One data set has as its system NB4 cells. Briefly: Cell cycle and apoptosis (sub-G1) analysis by FACS in NB4 cells. Format: cell-based, human. The following applies: 5 μM, 30 h. The procedure:
(§1) Compounds 4a–n were tested at 5 μM for 30 h in NB4 […] and U937 AML cells among hematological cancers, and in MCF-7 breast cancer and SH-SY5Y neuroblastoma cells among solid cancers, to determine their effects in cell cycle and apoptosis induction.
(§2) In the same cell lines, the induction of apoptosis has been evaluated through the percentage of the sub-G1 peaks.
(§3) For colorimetric exclusion, the cells (2 × 10^5 cells/mL) were plated in multiwells in triplicate. After stimulations at different times and concentrations, cells were diluted in the ratio 1:1 in Trypan Blue (Sigma) and counted with an optical microscope. For cell cycle analyses, cells were plated (2 × 10^5 cells/mL) and were harvested, centrifuged at 1200 rpm for 5 min and resuspended in 500 μL of a hypotonic solution containing 1× PBS, Sodium Citrate 0.1%, 0.1% NP-40, RNAase A and […] Propidium Iodide (PI). After 30 min at room temperature (RT) in the dark, samples were acquired by FACS-Calibur (BD Bioscences, San Jose, CA, USA) using CellQuest software (BD Biosciences). The percentage in different phases of the cell cycle was determined by ModFit LT V3 software (Verity). All experiments were performed in triplicate. Cell death was measured as percentage of cells in sub-G1 phase as in [30].
(In general: A flow cytometer gives signals particle by particle.)

Data set [1] relates to p300. The experiment in a line: Western blot of acetylation marks (p300 inhibition) in MCF-7 cells. The format is cell-based, human. To be noted: 5 μM, 30 h. On the procedure:
(§4) In MCF-7 cells, the levels of acetyl-H3, acetyl-H4, H3K27me3, and H3R17me2 were detected by western blot analyses as functional tests for p300 (acH3 and acH4), EZH2 (H3K27me3) and CARM1 (H3R17me2) inhibition in cells, respectively (Figure 5).
(§5) The procedures were performed as described in [30, 31]. Primary antibodies used were: Ac-H3 (Millipore, Milan, Italy); Ac-H4 (Millipore, Milan, Italy); Ac-H3K9-14 (Diagenode, Ougrée, Belgium); Ac-α-tubulin (Sigma-Aldrich), H3K27me3 (Diagenode); H3R17me2 (Diagenode); EZH2 (Abcam, Cambridge, UK). H3 (Sigma-Aldrich), H4 (Abcam), GAPDH (Sigma) and ERKs (Santa Cruz, Biotechnology, TX, USA) were used to normalize the total protein extracts (see also Supplementary Material).
A general note: Immunoblotting shows a protein as a band on a membrane.

A further data set deals with U937 cells. The experiment in a line: Cell cycle and apoptosis (sub-G1) analysis by FACS in U937 cells. To be noted: 5 μM, 30 h. The format is cell-based, human. On the procedure:
as §1, §2, §3

In data set [2] the test system is p300. Briefly: Western blot of acetylation marks (p300 inhibition) in NB4 cells. To be noted: 5 μM, 30 h. Format: cell-based, human. On the procedure:
(§6) Western blot analyses were carried out on NB4 and MCF-7 cells treated with a subset of compounds 4 (5 μM, 30 h), to confirm that the observed effects are due to modulation of p300, CARM1, and eventually EZH2 activities. Suberoylanilide hydroxamic acid (SAHA), a FDA-approved HDAC inhibitor [28], and GSK-126 [29], a well-known EZH2 inhibitor, were added as internal controls. In NB4 cells, the levels of acetyl-H3 (acH3) and acetyl-H4 (acH4) as well as those of acetyl-H3K9/14 (AcH3K9/14, see Supplementary material) and of the non-histone substrate acetyl-α-tubulin (Ac-Tubulin) were detected as an index of p300 inhibition (Figure 4). In the same cell line, the levels of H3K27me3, histone mark of the EZH2 catalytic activity (Figure 4), as well as the level of the EZH2 expression (see Supplementary material) have been determined. Last, the amount of H3R17me2, the functional read-out of CARM1 inhibition, was determined (Figure 4).
(§7) The procedures were performed as described in [30, 31]. Primary antibodies used were: Ac-H3 (Millipore, Milan, Italy); Ac-H4 (Millipore, Milan, Italy); Ac-H3K9-14 (Diagenode, Ougrée, Belgium); Ac-α-tubulin (Sigma-Aldrich), H3K27me3 (Diagenode); H3R17me2 (Diagenode); EZH2 (Abcam, Cambridge, UK). […]

The next data set relates to EZH2. The experiment in a line: Western blot of H3K27me3 (EZH2 catalytic activity) in NB4 cells. The format is cell-based, human. The following applies: 5 μM, 30 h. The procedure:
as §6, §7

Data set [3] is described as follows: Cell viability in non-cancer mesenchymal progenitor cells (differential toxicity). The format is cell-based. To be noted: human, MePR2B cells, control 100%, read-out: percentage of cell viability. The procedure:
After treatment at 5 μM for 30 h, 4l and 4m reduced the percentage of cell viability to 61.2 ± 0.8 and 85.5 ± 3.7, respectively, in comparison with the control (100%).
as §3

The subject of a further data set is CARM1. Briefly: Western blot of H3R17me2 (CARM1) in MCF-7 cells. The format is cell-based, human. To be noted: 5 μM, 30 h. The procedure: as §4, §5

Turning to `O=C1/C(=C/c2ccccc2Br)CN(Cc2ccccc2)C/C1=C\c1ccccc1Br` [Compound 4e, 1-benzyl-3,5-bis((E)-2-bromobenzylidene)piperidin-4-one], in the data set on NB4 cells, the “induction of apoptosis, % sub-G1 peaks” value is recorded as 30 to 40%. In the data set on p300 [1], the “levels of acetyl-H4” value is reported as “decrease of the acetylation levels”.
On to `O=C1/C(=C/c2ccccc2Br)CN(CCc2ccccc2)C/C1=C\c1ccccc1Br` [Compound 4f, 3,5-Bis((E)-2-bromobenzylidene)-1-phenethylpiperidin-4-one], for which the “effect on cell cycle phases” value in the data set on U937 cells was “block in G2/M phase”. Also, the “levels of acetyl-H3” value in the data set with p300 [2] was “less effective”.
For `O=C1/C(=C/c2ccccc2Br)CN(CCCc2ccccc2)C/C1=C\c1ccccc1Br` [Compound 4g, 3,5-Bis((E)-2-bromobenzylidene)-1-(3-phenylpropyl)piperidin-4-one], in the data set on U937 cells, the “effect on cell cycle phases” value is “arrested the cell cycle at the G1/S phase”. Moreover, the “levels of acetyl-H3” value in the data set with p300 [2] is reported as “less effective”.
As to `O=C1/C(=C/c2ccccc2Br)CN(CC(=O)c2ccccc2)C/C1=C\c1ccccc1Br` [Compound 4h, 3,5-Bis((E)-2-bromobenzylidene)-1-(2-oxo-2-phenylethyl)piperidin-4-one], in the data set with NB4 cells, the “induction of apoptosis, % sub-G1 peaks” value is 30 to 40%. In addition, the “levels of H3K27me3” value in the data set with EZH2 is “reduction of the H3K27me3 levels”.
On to `O=C1/C(=C/c2ccccc2Br)CN(CCCC(=O)c2ccccc2)C/C1=C\c1ccccc1Br` [Compound 4j, 3,5-Bis((E)-2-bromobenzylidene)-1-(4-oxo-4-phenylbutyl)piperidin-4-one], for which, in the data set on p300 [1], the “levels of acetyl-H4” value was “decrease of the acetylation levels”.
As for `O=C1/C(=C/c2ccccc2Br)CN(C(=O)c2ccccc2)C/C1=C\c1ccccc1Br` [Compound 4k, 1-Benzoyl-3,5-bis((E)-2-bromobenzylidene)piperidin-4-one], the “induction of apoptosis, % sub-G1 peaks” value with NB4 cells was in the range of 30 to 40%. For the same compound, the “levels of acetyl-α-tubulin” value with p300 [1] was “decrease of the acetylation levels”.
As to `O=C1/C(=C/c2ccccc2Br)CN(C(=O)Cc2ccccc2)C/C1=C\c1ccccc1Br` [Compound 4l, 3,5-Bis((E)-2-bromobenzylidene)-1-(2-phenylacetyl)piperidin-4-one], in the data set with NB4 cells, the “induction of apoptosis, % sub-G1 peaks” value turned out to be 67%. The “effect on cell cycle phases” value in the data set on U937 cells is “block in G2/M phase”. The viability at 30 h, 5 µM in data set [3] is 61.2 ± 0.8%. For the same compound, the “levels of acetyl-H4” value in the data set with p300 [1] was “decrease of the acetylation levels”.
Consider `O=C1/C(=C/c2ccccc2Br)CN(C(=O)CCc2ccccc2)C/C1=C\c1ccccc1Br` [Compound 4m, 3,5-Bis((E)-2-bromobenzylidene)-1-(3-phenylpropanoyl)piperidin-4-one], for which, in the data set with NB4 cells, the “induction of apoptosis, % sub-G1 peaks” value came to 56%. Moreover, the “effect on cell cycle phases” value with U937 cells is “block in G2/M phase”. For the same compound, in data set [3], the viability at 30 h, 5 µM stood at 85.5 ± 3.7%. Also, the “levels of H3K27me3” value in the data set with EZH2 is on record as “reduction of the H3K27me3 levels”. Moreover, the “levels of H3R17me2” value in the data set on CARM1 is listed as “most effective”.
On to `O=C1/C(=C/c2ccccc2Br)CN(C(=O)C=Cc2ccccc2)C/C1=C\c1ccccc1Br` [Compound 4n, 3,5-Bis((E)-2-bromobenzylidene)-1-cinnamoylpiperidin-4-one], for which the “effect on cell cycle phases” value in the data set on U937 cells is given as “arrested the cell cycle at the G1/S phase”. For the same compound, in the data set with p300 [1], the “levels of acetyl-H4” value was “decrease of the acetylation levels”.
